Legend:
hypertensive-rat cohort = conditions: spironolactone sub-cutaneously; C.G. Brilla et al 1993; cited from earlier work
[1] = test system: patients with symptomatic heart failure; test: Human clinical trial (spironolactone dose-ranging study): clinical laboratory values and neurohormones; conditions: for Creatinine, Week 12 Mean Change / Hematocrit, Week 12 Mean Change / Hemoglobin, Week 12 Mean Change / N-Terminal ANF, Week 12 Mean Change / PRA, Week 12 Mean Change / Potassium, Week 12 Mean Change / Sodium, Week 12 Mean Change / Urinary aldosterone, Week 12 Mean Change: Week 12 vs baseline
[2] = test system: patients with symptomatic heart failure; test: Human clinical trial (spironolactone dose-ranging study): cardiac assessments, weight and vital signs; type: in vivo
Text: (§1) All statistical methods were two-sided.

[3] = test system: patients with symptomatic heart failure; test: Human clinical trial (spironolactone dose-ranging study): hyperkalemia, adverse events, hospitalizations, deaths
Text: as §1
In this analysis, the risk ratio can be thought of as the probability that the patient with the risk factor will develop hyperkalemia, relative to the probability that a patient without the risk factor will develop it.

myocardial fibrosis = conditions: cited from earlier work
plasma aldosterone = conditions: hypertensive patients; J. Staessen et al 1981; cited from earlier work

CC(=O)S[C@@H]1CC2=CC(=O)CC[C@]2(C)[C@H]2CC[C@@]3(C)[C@@H](CC[C@@]34CCC(=O)O4)[C@H]12 [Spironolactone, 17-hydroxy-7α-mercapto-3-oxo-17α-pregn-4-ene-21-carboxylic acid γ-lactone acetate]
Fibrosis in the hypertensive-rat cohort (hypertensive-rat cohort): prevent fibrosis
Creatinine, Week 12 Mean Change ([1]; 12.5 mg/d): 6.83 µmol/L
Hematocrit, Week 12 Mean Change ([1]; 12.5 mg/d): 0.00%
Hemoglobin, Week 12 Mean Change ([1]; 12.5 mg/d): 0.12 mmol/L/Fe
N-Terminal ANF, Week 12 Mean Change ([1]; 12.5 mg/d): -287.30 pmol/L
PRA, Week 12 Mean Change ([1]; 12.5 mg/d): 9.90 NgAngl/L/s
Potassium, Week 12 Mean Change ([1]; 12.5 mg/d): 0.18 mmol/L
Sodium, Week 12 Mean Change ([1]; 12.5 mg/d): -1.61 mmol/L
Urinary aldosterone, Week 12 Mean Change ([1]; 12.5 mg/d): 4.21 nmol/D
Creatinine, Week 12 Mean Change ([1]; 25 mg/d): 9.30 µmol/L
Hematocrit, Week 12 Mean Change ([1]; 25 mg/d): −0.02%
Hemoglobin, Week 12 Mean Change ([1]; 25 mg/d): −0.20 mmol/L/Fe
N-Terminal ANF, Week 12 Mean Change ([1]; 25 mg/d): -294.60 pmol/L
PRA, Week 12 Mean Change ([1]; 25 mg/d): 9.33 NgAngl/L/s
Potassium, Week 12 Mean Change ([1]; 25 mg/d): 0.37 mmol/L
Sodium, Week 12 Mean Change ([1]; 25 mg/d): -1.85 mmol/L
Urinary aldosterone, Week 12 Mean Change ([1]; 25 mg/d): 4.27 nmol/D
Creatinine, Week 12 Mean Change ([1]; 50 mg/d): 14.06 µmol/L
Hematocrit, Week 12 Mean Change ([1]; 50 mg/d): −0.02%
Hemoglobin, Week 12 Mean Change ([1]; 50 mg/d): −0.31 mmol/L/Fe
N-Terminal ANF, Week 12 Mean Change ([1]; 50 mg/d): -351.30 pmol/L
PRA, Week 12 Mean Change ([1]; 50 mg/d): 13.18 NgAngl/L/s
Potassium, Week 12 Mean Change ([1]; 50 mg/d): 0.51 mmol/L
Sodium, Week 12 Mean Change ([1]; 50 mg/d): -2.52 mmol/L
Urinary aldosterone, Week 12 Mean Change ([1]; 50 mg/d): 8.11 nmol/D
Creatinine, Week 12 Mean Change ([1]; 75 mg/d): 21.90 µmol/L
Hematocrit, Week 12 Mean Change ([1]; 75 mg/d): −0.03%
Hemoglobin, Week 12 Mean Change ([1]; 75 mg/d): −0.46 mmol/L/Fe
N-Terminal ANF, Week 12 Mean Change ([1]; 75 mg/d): -370.60 pmol/L
PRA, Week 12 Mean Change ([1]; 75 mg/d): 10.23 NgAngl/L/s
Potassium, Week 12 Mean Change ([1]; 75 mg/d): 0.58 mmol/L
Sodium, Week 12 Mean Change ([1]; 75 mg/d): -3.37 mmol/L
Urinary aldosterone, Week 12 Mean Change ([1]; 75 mg/d): 11.13 nmol/D
Change from baseline in PRA, dose-response ([1]; Day 9, Week 4 and Week 12, higher doses): greater increases in PRA
N-Terminal Atrial Natriuretic Factor (ANF), change from baseline ([1]; all active treatments, all treatment visits): decreases from baseline
Urinary aldosterone excretion, change from baseline ([1]; all treatment groups, 12 week visit): mean increases from baseline
Change from baseline in serum potassium, dose-response ([1]; all treatment period visits, higher doses): larger increases in potassium
Mean Change in Supine diastolic BP from Baseline to Week 12 ([2]; 12.5 mg/d): −0.19 (9.13)
Mean Change in Supine pulse from Baseline to Week 12 ([2]; 12.5 mg/d): −3.70 (9.56) BPM
Mean Change in Supine systolic BP from Baseline to Week 12 ([2]; 12.5 mg/d): 1.84 (11.82)
Mean Change in Weight from Baseline to Week 12 ([2]; 12.5 mg/d): 0.59 (3.00)
Mean systolic and diastolic blood pressure (standing and supine) ([2]; 25 mg, 50 mg and 75 mg groups, all visits): decreases in mean systolic and diastolic blood pressure
Mean Change in Supine diastolic BP from Baseline to Week 12 ([2]; 25 mg/d): −2.74 (9.57)
Mean Change in Supine pulse from Baseline to Week 12 ([2]; 25 mg/d): −1.40 (10.00) BPM
Mean Change in Supine systolic BP from Baseline to Week 12 ([2]; 25 mg/d): −4.46 (13.97)
Mean Change in Weight from Baseline to Week 12 ([2]; 25 mg/d): −0.16 (3.02)
Mean Change in Supine diastolic BP from Baseline to Week 12 ([2]; 50 mg/d): −5.11 (11.11)
Mean Change in Supine pulse from Baseline to Week 12 ([2]; 50 mg/d): −3.21 (11.27) BPM
Mean Change in Supine systolic BP from Baseline to Week 12 ([2]; 50 mg/d): −7.04 (15.83)
Mean Change in Weight from Baseline to Week 12 ([2]; 50 mg/d): 0.62 (2.05)
Changes from baseline in body weight ([2]; 75 mg dose group, Day 9 and Week 4): more weight loss than other patients
Mean Change in Supine diastolic BP from Baseline to Week 12 ([2]; 75 mg/d): −5.91 (9.05)
Mean Change in Supine pulse from Baseline to Week 12 ([2]; 75 mg/d): −1.07 (13.79) BPM
Mean Change in Supine systolic BP from Baseline to Week 12 ([2]; 75 mg/d): −5.68 (15.62)
Mean Change in Weight from Baseline to Week 12 ([2]; 75 mg/d): −0.81 (2.70)
Sodium retention score, dose response ([2]; Day 9 (p=0.019), not seen at later visits): more reduction in sodium retention score
Pulse in the supine position, dose response ([2]; Week 4 (p-value=0.045)): greater decreases in pulse in the supine position at higher doses
Changes in loop diuretic therapy ([2]; Week 8 (p=0.004), higher doses vs placebo, not observed at Week 12): decreases in the loop diuretic dose
NYHA Class ([2]; spironolactone groups vs placebo, difference not statistically significant): trend toward improvement
Deaths during the drug treatment period ([3]; all dose groups, 12 weeks): No deaths were reported
Hyperkalemia incidence, dose-response ([3]; human, in vivo): clear dose-response in term of incidence
Patients died within 30 days after the study was completed ([3]; previously at the 50 mg dose): Three
Myocardial fibrosis in animal models (myocardial fibrosis; D. Klug et al 1993): prevents myocardial fibrosis
Fibrosis in animal models (myocardial fibrosis; irrespective of left ventricular hypertrophy and hypertension, C.G. Brilla et al 1993): prevent fibrosis

C[C@H](CS)C(=O)N1CCC[C@H]1C(=O)O [Captopril, captopril]
Plasma aldosterone despite continued ACE inhibition (plasma aldosterone): gradual return of plasma aldosterone to baseline levels

Source: patent US6608047B2, “Use of low dosage amount of spironolactone for treatment of cardiovascular disease” (Pharmacia Corporation, priority 1995, dated 2003)
